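Exposure lasted 48 hours, with cells grown in 96-well plates and compounds tested at five concentrations. GI50: concentration for 50% inhibition of growth. TGI is the concentration that stops growth completely.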
Key:
Assay in all cases: inhibition of tumour cell growth, NCI panel, 48 h
OVCAR-5 ovarian = test system: OVCAR-5 ovarian
A549 NSCLC = test system: A549 NSCLC
SNB-19 CNS = test system: SNB-19 CNS
RXF 393 renal = test system: RXF 393 renal
SN12C renal = test system: SN12C renal
SK-MEL-28 melanoma = test system: SK-MEL-28 melanoma
SNB-75 CNS = test system: SNB-75 CNS
MOLT-4 leukemia = test system: MOLT-4 leukemia
HCT-15 colon = test system: HCT-15 colon
HL-60(TB) leukemia = test system: HL-60(TB) leukemia

SMILES | TGI (OVCAR-5 ovarian) | TGI (A549 NSCLC) | TGI (SNB-19 CNS) | TGI (RXF 393 renal) | TGI (SN12C renal) | TGI (SK-MEL-28 melanoma) | TGI (SNB-75 CNS) | TGI (MOLT-4 leukemia) | TGI (HCT-15 colon) | TGI (HL-60(TB) leukemia) | GI50 (OVCAR-5 ovarian) | GI50 (A549 NSCLC) | GI50 (SNB-19 CNS) | GI50 (RXF 393 renal) | GI50 (SN12C renal) | GI50 (SK-MEL-28 melanoma) | GI50 (SNB-75 CNS) | GI50 (MOLT-4 leukemia) | GI50 (HCT-15 colon) | GI50 (HL-60(TB) leukemia)
NC(CCP(=O)(O)CCC1C=CC=CC1)C(=O)O (stereo unspecified) | > 100 µM | > 100 µM | > 100 µM | > 100 µM | > 100 µM | > 100 µM | > 100 µM | > 100 µM | > 100 µM | > 100 µM |  |  |  |  |  |  |  |  |  | 
O=C(O)C1Cc2c([nH]c3ccccc23)C=N1 (stereo unspecified) | > 100 µM | > 100 µM | > 100 µM | > 100 µM | > 100 µM | > 100 µM | > 100 µM | > 100 µM | > 100 µM | > 100 µM |  |  |  |  |  |  |  |  |  | 
CC12CCC(C(=O)N3CC=CCC3)(OC1=O)C2(C)C (stereo unspecified) | > 100 µM | > 100 µM | > 100 µM | > 100 µM | > 100 µM | > 100 µM | > 100 µM | > 100 µM | > 100 µM | > 100 µM |  |  |  |  |  |  |  |  |  | 
COc1cc(C2=C(C#N)C(N)OC3=C2COc2ccccc23)cc(OC)c1OC (stereo unspecified) | > 100 µM | 49.3 µM | 30.6 µM |  | 39.1 µM | > 100 µM |  | > 100 µM | > 100 µM | > 100 µM |  |  |  |  |  |  |  |  |  | 
Nc1ccc2c3c(n(CCCCl)c(=O)c2c1)-c1cc2c(cc1C3=O)OCO2 | > 100 µM | > 100 µM | > 100 µM | > 100 µM | > 100 µM | > 100 µM | > 100 µM | > 100 µM | > 100 µM | > 100 µM | > 100 µM | 7.75 µM | > 100 µM | 55.1 µM | > 100 µM | > 100 µM | > 100 µM | 2.14 µM | > 100 µM | > 100 µM
CCC(=O)NC(Nc1ccc(O)cc1)(C(F)(F)F)C(F)(F)F | > 100 µM |  | > 100 µM | > 100 µM | > 100 µM | > 100 µM | > 100 µM | > 100 µM | > 100 µM | 46.5 µM |  |  |  |  |  |  |  |  |  | 
COC(=O)c1ccc(N=NN(C)COc2ccc([N+](=O)[O-])cc2)cc1 | > 100 µM | > 100 µM | > 100 µM | > 100 µM | > 100 µM | > 100 µM | > 100 µM | > 100 µM | > 100 µM | 52.5 µM |  |  |  |  |  |  |  |  |  | 
N=C(N)c1csc([C@@H]2O[C@H](CO)[C@@H](O)[C@H]2O)n1 |  | > 100 µM | > 100 µM | > 100 µM | > 100 µM | > 100 µM | > 100 µM | > 100 µM | > 100 µM | > 100 µM |  |  |  |  |  |  |  |  |  | 

Reference: PubChem BioAssay (NCI)
